# Measured values taken from US10660877B2 (BRISTOL-MYERS SQUIBB COMPANY, priority 2016, dated 2020).
# Like-named read-outs stand apart in the source and are kept apart here.
# Assays:
# human TLR9 = human TLR9 (Homo sapiens (Human), UniProt Q9NR96); experiment: TLR9 inhibition reporter assay (HEK-Blue cells, SEAP reporter, ODN2006 stimulation);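 note: compounds tested over 0.05 nM to 50 µM, 22 h incubation, inhibition taken as SEAP signal drop from agonist plus DMSO wells toward a known inhibitor control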
# human TLR7 = human TLR7 (Homo sapiens (Human), UniProt Q9NYK1); experiment: TLR7 inhibition reporter assay (HEK-Blue cells, SEAP reporter, gardiquimod stimulation); type: cell-based; settings: HEK-Blue cells overexpressing human TLR7, gardiquimod 7.5 μM
# human TLR8 = human TLR8 (Homo sapiens (Human), UniProt Q9NR97); experiment: TLR8 inhibition reporter assay (HEK-Blue cells, SEAP reporter, R848 stimulation);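 note: compounds tested from 0.05 nM to 50 µM, 22 h at 37 °C, SEAP measured with HEK-Blue Detection, inhibition relative to agonist plus DMSO versus a known inhibitor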
# [1] = read-out: TLR9 IC50, HEK-Blue cells overexpressing human TLR9, ODN2006 5 nM
# [2] = read-out: TLR8 IC50, HEK-Blue cells overexpressing human TLR8, R848 15.9 μM
# human TLR9, sequence (Q9NR96 26-1032): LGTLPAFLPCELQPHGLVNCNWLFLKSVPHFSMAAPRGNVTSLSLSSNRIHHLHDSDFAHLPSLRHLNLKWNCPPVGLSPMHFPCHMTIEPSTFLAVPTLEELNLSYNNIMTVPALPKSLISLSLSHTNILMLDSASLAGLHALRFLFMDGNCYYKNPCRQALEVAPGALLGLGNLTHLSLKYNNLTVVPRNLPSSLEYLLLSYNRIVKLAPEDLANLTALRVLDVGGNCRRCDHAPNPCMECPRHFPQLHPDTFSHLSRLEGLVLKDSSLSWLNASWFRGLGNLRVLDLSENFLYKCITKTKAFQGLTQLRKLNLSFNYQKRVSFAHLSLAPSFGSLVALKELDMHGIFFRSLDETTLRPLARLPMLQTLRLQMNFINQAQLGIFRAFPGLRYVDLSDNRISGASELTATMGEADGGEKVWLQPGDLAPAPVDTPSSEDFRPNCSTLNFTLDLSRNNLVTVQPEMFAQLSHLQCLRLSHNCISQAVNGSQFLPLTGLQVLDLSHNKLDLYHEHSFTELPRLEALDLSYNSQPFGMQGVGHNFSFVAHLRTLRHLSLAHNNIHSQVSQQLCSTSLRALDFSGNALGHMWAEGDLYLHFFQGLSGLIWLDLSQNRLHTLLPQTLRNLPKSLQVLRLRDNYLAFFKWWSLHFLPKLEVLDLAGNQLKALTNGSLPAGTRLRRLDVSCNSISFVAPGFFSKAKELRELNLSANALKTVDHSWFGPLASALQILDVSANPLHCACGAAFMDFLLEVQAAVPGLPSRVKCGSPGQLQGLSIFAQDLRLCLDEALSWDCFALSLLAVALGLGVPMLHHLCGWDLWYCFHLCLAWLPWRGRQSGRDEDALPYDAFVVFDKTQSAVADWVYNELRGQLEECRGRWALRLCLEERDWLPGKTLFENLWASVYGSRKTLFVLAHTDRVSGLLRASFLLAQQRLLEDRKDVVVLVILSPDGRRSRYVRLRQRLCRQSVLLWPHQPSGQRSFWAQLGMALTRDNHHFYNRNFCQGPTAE
# human TLR7, sequence (Q9NYK1 27-1049): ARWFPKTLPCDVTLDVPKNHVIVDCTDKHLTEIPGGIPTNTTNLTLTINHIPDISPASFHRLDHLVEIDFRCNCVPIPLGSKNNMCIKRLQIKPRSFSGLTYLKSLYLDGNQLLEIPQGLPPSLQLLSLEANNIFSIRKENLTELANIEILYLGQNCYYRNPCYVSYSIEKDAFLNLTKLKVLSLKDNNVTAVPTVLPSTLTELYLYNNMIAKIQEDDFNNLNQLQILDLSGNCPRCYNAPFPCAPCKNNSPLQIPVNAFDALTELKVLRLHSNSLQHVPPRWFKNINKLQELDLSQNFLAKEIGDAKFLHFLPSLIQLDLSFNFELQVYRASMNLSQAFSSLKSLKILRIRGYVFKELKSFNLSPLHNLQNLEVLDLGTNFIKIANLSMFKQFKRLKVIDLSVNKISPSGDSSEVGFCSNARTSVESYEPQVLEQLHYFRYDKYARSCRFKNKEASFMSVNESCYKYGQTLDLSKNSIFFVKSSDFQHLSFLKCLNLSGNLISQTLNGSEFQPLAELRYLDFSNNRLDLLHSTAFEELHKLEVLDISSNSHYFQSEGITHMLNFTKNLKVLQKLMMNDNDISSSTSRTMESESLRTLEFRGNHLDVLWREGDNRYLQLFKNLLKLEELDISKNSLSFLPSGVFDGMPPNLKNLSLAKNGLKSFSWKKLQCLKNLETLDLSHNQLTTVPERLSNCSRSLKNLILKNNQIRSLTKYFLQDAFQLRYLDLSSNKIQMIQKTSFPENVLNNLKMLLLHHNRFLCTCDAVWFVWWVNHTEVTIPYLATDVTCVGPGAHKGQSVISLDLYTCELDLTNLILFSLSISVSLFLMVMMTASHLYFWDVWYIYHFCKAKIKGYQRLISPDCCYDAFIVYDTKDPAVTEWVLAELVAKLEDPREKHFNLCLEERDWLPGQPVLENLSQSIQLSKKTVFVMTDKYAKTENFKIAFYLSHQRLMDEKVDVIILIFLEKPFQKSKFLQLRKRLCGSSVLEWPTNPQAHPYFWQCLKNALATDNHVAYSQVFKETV
# human TLR8, sequence (Q9NR97 27-1041): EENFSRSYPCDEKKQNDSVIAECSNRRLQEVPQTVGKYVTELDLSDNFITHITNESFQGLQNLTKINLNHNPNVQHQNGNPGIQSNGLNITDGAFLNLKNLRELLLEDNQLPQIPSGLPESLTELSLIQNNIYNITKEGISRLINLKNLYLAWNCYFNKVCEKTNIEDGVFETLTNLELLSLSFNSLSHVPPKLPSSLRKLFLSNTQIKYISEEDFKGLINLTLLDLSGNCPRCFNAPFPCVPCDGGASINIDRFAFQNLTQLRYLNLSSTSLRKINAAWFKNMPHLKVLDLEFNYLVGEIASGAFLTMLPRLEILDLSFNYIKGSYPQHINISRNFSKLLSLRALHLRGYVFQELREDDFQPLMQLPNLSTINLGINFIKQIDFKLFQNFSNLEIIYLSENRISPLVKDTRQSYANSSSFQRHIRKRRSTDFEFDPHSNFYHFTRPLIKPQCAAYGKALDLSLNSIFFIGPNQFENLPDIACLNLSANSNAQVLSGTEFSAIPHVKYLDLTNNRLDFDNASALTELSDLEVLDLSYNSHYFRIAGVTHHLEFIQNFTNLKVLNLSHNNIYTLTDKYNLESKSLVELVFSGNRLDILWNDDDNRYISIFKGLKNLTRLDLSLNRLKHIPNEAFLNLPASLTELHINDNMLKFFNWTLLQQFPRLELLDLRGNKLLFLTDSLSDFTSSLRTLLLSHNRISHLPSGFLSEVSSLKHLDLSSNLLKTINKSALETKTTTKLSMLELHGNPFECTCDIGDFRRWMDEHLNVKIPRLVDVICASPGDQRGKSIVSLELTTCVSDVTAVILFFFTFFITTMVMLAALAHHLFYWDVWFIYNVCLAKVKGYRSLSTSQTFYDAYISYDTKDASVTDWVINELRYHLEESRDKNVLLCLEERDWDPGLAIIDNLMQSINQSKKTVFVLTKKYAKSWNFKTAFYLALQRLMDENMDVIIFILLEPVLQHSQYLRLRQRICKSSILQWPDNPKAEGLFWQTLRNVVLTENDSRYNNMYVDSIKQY
SMILES,IC50 (human TLR9; [1]),IC50 (human TLR7),IC50 (human TLR8; [2]),"IC50 (human TLR9; TLR9 IC50, HEK-Blue cells overexpressing human TLR9, ODN2006 5 nM)","IC50 (human TLR8; TLR8 IC50, HEK-Blue cells overexpressing human TLR8, R848 15.9 μM)"
"Cc1cc(-c2[nH]c3ccc(C4CCN(C(=O)CN(C)C5CCCCC5)CC4)cc3c2C(C)C)cc(C)n1 [Example 384, 2-(cyclohexyl (methyl)amino)-1-(4-(2-(2,6-dimethylpyridin-4-yl)-3-isopropyl-1H-indol-5-yl)piperidin-1-yl)ethan-1-one]",630 nM,14.4 nM,57 nM,–,–
"Cc1cc(-c2[nH]c3ccc(C4CCN(C(=O)CNC5CCCOC5)CC4)cc3c2C(C)C)cc(C)n1 (stereo not drawn) [Example 385, 1-(4-(2-(2,6-dimethylpyridin-4-yl)-3-isopropyl-1H-indol-5-yl)piperidin-1-yl)-2-((tetrahydro-2H-pyran-3-yl)amino)ethan-1-one]",539 nM,3.2 nM,22 nM,–,–
"Cc1cc(-c2[nH]c3ccc(C4CCN(C(=O)CNC5CCOCC5)CC4)cc3c2C(C)C)cc(C)n1 [Example 386, 1-(4-(2-(2,6-dimethylpyridin-4-yl)-3-isopropyl-1H-indol-5-yl)piperidin-1-yl)-2-((tetrahydro-2H-pyran-4-yl)amino)ethan-1-one]",280 nM,3.6 nM,17.7 nM,–,–
"Cc1cc(-c2[nH]c3ccc(C4CCN(C(=O)CNC5CCOC5)CC4)cc3c2C(C)C)cc(C)n1 (stereo not drawn) [Example 387, 1-(4-(2-(2,6-dimethylpyridin-4-yl)-3-isopropyl-1H-indol-5-yl)piperidin-1-yl)-2-((tetrahydrofuran-3-yl)amino)ethan-1-one]",909 nM,0.6 nM,13.3 nM,–,–
"Cc1cc(-c2[nH]c3ccc(C4CCN(C(=O)CN5CCC(F)CC5)CC4)cc3c2C(C)C)cc(C)n1 [Example 388, 1-(4-(2-(2,6-dimethylpyridin-4-yl)-3-isopropyl-1H-indol-5-yl)piperidin-1-yl)-2-(4-fluoropiperidin-1-yl)ethan-1-one]",831 nM,4.3 nM,20.9 nM,–,–
"Cc1cc(-c2[nH]c3ccc(C4CCN(C(=O)CN5CC6CCC(C5)O6)CC4)cc3c2C(C)C)cc(C)n1 [Example 389, 2-(8-oxa-3-azabicyclo[3.2.1]octan-3-yl)-1-(4-(2-(2,6-dimethylpyridin-4-yl)-3-isopropyl-1H-indol-5-yl)piperidin-1-yl)ethan-1-one]",880 nM,10.3 nM,31.3 nM,–,–
"Cc1cc(-c2[nH]c3ccc(C4CCN(C(=O)CN5CCCC(F)(F)C5)CC4)cc3c2C(C)C)cc(C)n1 [Example 390, 2-(3,3-difluoropiperidin-1-yl)-1-(4-(2-(2,6-dimethylpyridin-4-yl)-3-isopropyl-1H-indol-5-yl)piperidin-1-yl)ethan-1-one]",25800 nM,17.9 nM,191 nM,–,–
"Cc1cc(-c2[nH]c3ccc(C4CCN(C(=O)CN5CC[C@@H](O)C5)CC4)cc3c2C(C)C)cc(C)n1 [Example 391, (R)-1-(4-(2-(2,6-dimethylpyridin-4-yl)-3-isopropyl-1H-indol-5-yl)piperidin-1-yl)-2-(3-hydroxypyrrolidin-1-yl)ethan-1-one]",691 nM,1.3 nM,6.4 nM,–,–
"CCC(C)NCC(=O)N1CCC(c2ccc3[nH]c(-c4cc(C)nc(C)c4)c(C(C)C)c3c2)CC1 (stereo not drawn) [Example 392, 2-(sec-butylamino)-1-(4-(2-(2,6-dimethylpyridin-4-yl)-3-isopropyl-1H-indol-5-yl)piperidin-1-yl)ethan-1-one]",253 nM,3.2 nM,10.4 nM,–,–

# Second part, the compound after the results:
IC50 (human TLR9; [1]),IC50 (human TLR7),IC50 (human TLR8; [2]),"IC50 (human TLR9; TLR9 IC50, HEK-Blue cells overexpressing human TLR9, ODN2006 5 nM)","IC50 (human TLR8; TLR8 IC50, HEK-Blue cells overexpressing human TLR8, R848 15.9 μM)",SMILES
–,7.9 nM,–,800 nM,37.8 nM,"Cc1cc(-c2[nH]c3ccc(C4CCN(C(=O)CNCCC(C)C)CC4)cc3c2C(C)C)cc(C)n1 [Example 393, 1-(4-(2-(2,6-dimethylpyridin-4-yl)-3-isopropyl-1H-indol-5-yl)piperidin-1-yl)-2-(isopentylamino)ethan-1-one]"
833 nM,14.6 nM,152 nM,–,–,"Cc1cc(-c2[nH]c3ccc(C4CCN(C(=O)CN5C[C@@H](C(F)(F)F)C[C@H]5CO)CC4)cc3c2C(C)C)cc(C)n1 [Example 394, 1-(4-(2-(2,6-dimethylpyridin-4-yl)-3-isopropyl-1H-indol-5-yl)piperidin-1-yl)-2-((2S,4S)-2-(hydroxymethyl)-4-(trifluoromethyl)pyrrolidin-1-yl)ethan-1-one]"
995 nM,9.7 nM,41.1 nM,–,–,"CO[C@@H]1C[C@H](CO)N(CC(=O)N2CCC(c3ccc4[nH]c(-c5cc(C)nc(C)c5)c(C(C)C)c4c3)CC2)C1 [Example 395, 1-(4-(2-(2,6-dimethylpyridin-4-yl)-3-isopropyl-1H-indol-5-yl)piperidin-1-yl)-2-((2R,4R)-2-(hydroxymethyl)-4-methoxypyrrolidin-1-yl)ethan-1-one]"
1600 nM,4.4 nM,55.2 nM,–,–,"Cc1cc(-c2[nH]c3ccc(C4CCN(C(=O)CN(CCO)Cc5ccccc5)CC4)cc3c2C(C)C)cc(C)n1 [Example 396, 2-(benzyl(2-hydroxyethyl)amino)-1-(4-(2-(2,6-dimethylpyridin-4-yl)-3-isopropyl-1H-indol-5-yl)piperidin-1-yl)ethan-1-one]"
705 nM,2.2 nM,18.6 nM,–,–,"CCN(CCO)CC(=O)N1CCC(c2ccc3[nH]c(-c4cc(C)nc(C)c4)c(C(C)C)c3c2)CC1 [Example 397, 1-(4-(2-(2,6-dimethylpyridin-4-yl)-3-isopropyl-1H-indol-5-yl)piperidin-1-yl)-2-(ethyl(2-hydroxyethyl)amino)ethan-1-one]"
771 nM,3.5 nM,26 nM,–,–,"CCCN(CCO)CC(=O)N1CCC(c2ccc3[nH]c(-c4cc(C)nc(C)c4)c(C(C)C)c3c2)CC1 [Example 398, 1-(4-(2-(2,6-dimethylpyridin-4-yl)-3-isopropyl-1H-indol-5-yl)piperidin-1-yl)-2-((2-hydroxyethyl)(propyl)amino)ethan-1-one]"
688 nM,6.1 nM,66.9 nM,–,–,"Cc1cc(-c2[nH]c3ccc(C4CCN(C(=O)CN(C)CC(O)c5ccccc5)CC4)cc3c2C(C)C)cc(C)n1 (stereo not drawn) [Example 399, 1-(4-(2-(2,6-dimethylpyridin-4-yl)-3-isopropyl-1H-indol-5-yl)piperidin-1-yl)-2-((2-hydroxy-2-phenylethyl)(methyl)amino)ethan-1-one]"
451 nM,3.4 nM,16.8 nM,–,–,"Cc1cc(-c2[nH]c3ccc(C4CCN(C(=O)CN5CCOC[C@H]5CO)CC4)cc3c2C(C)C)cc(C)n1 [Example 400, (R)-1-(4-(2-(2,6-dimethylpyridin-4-yl)-3-isopropyl-1H-indol-5-yl)piperidin-1-yl)-2-(3-(hydroxymethyl)morpholino)ethan-1-one]"
1060 nM,9 nM,53 nM,–,–,"Cc1cc(-c2[nH]c3ccc(C4CCN(C(=O)CN(C)CC(C)(C)O)CC4)cc3c2C(C)C)cc(C)n1 [Example 401, 1-(4-(2-(2,6-dimethylpyridin-4-yl)-3-isopropyl-1H-indol-5-yl)piperidin-1-yl)-2-((2-hydroxy-2-methylpropyl)(methyl)amino) ethan-1-one]"
1820 nM,11.1 nM,61.1 nM,–,–,"Cc1cc(-c2[nH]c3ccc(C4CCN(C(=O)CN(C)[C@@H]5CCOC5)CC4)cc3c2C(C)C)cc(C)n1 [Example 402, (R)-1-(4-(2-(2,6-dimethylpyridin-4-yl)-3-isopropyl-1H-indol-5-yl)piperidin-1-yl)-2-(methyl(tetrahydrofuran-3-yl)amino) ethan-1-one]"
